{"source": "paper PMC2944806", "about": "“HLA Class I Binding of HBZ Determines Outcome in HTLV-1 Infection” (PLoS Pathogens, 2010)", "data": [{"biological_target": "T1, HLA class I molecule A*2402 (Homo sapiens, UniProt P04439, D101N/D140Y/D185E/E176V/E190D/F33S/G103R/G107R/I119L/I121M/I306V/K335N/L105A/L180Q/L300P/N151K/N90K/Q86E/Q94H/R106L/R138H/R89G/T104I/T345S/V100E/W191G/Y123F)", "T1 construct": "purchased ProImmune Ltd., Oxford, UK", "assay": "not given", "format": "binding", "settings": "REVEAL assay, assembly of peptide-HLA complex by ELISA with conformation-dependent anti-HLA antibody, relative to positive control peptide for that allele, comparable within an allele only", "units": {"Score (experimentally measured binding affinity, % binding compared to control peptide)": "%"}, "values": [{"sequence": "ICPINYSLL [HTLV-1 nonamer peptide]", "Score (experimentally measured binding affinity, % binding compared to control peptide)": 69.19}, {"sequence": "KYKNTLYRL [HTLV-1 nonamer peptide]", "Score (experimentally measured binding affinity, % binding compared to control peptide)": 124.9}, {"sequence": "EYLKRKEEE [HTLV-1 nonamer peptide]", "Score (experimentally measured binding affinity, % binding compared to control peptide)": 0}, {"sequence": "GYPGRVNEI [HTLV-1 nonamer peptide]", "Score (experimentally measured binding affinity, % binding compared to control peptide)": 82.68}, {"sequence": "SYGLLCQTI [HTLV-1 nonamer peptide]", "Score (experimentally measured binding affinity, % binding compared to control peptide)": 114.37}, {"sequence": "KYTLQSYGL [HTLV-1 nonamer peptide]", "Score (experimentally measured binding affinity, % binding compared to control peptide)": 104.78}, {"sequence": "LWLAAFAAL [HTLV-1 nonamer peptide]", "Score (experimentally measured binding affinity, % binding compared to control peptide)": 30.63}, {"sequence": "SFLLSHGLI [HTLV-1 nonamer peptide]", "Score (experimentally measured binding affinity, % binding compared to control peptide)": 79.27}, {"sequence": "VSCPEDLLV [HTLV-1 nonamer peptide]", "Score (experimentally measured binding affinity, % binding compared to control peptide)": 9.6}, {"sequence": "PYKRIEELL [HTLV-1 nonamer peptide]", "Score (experimentally measured binding affinity, % binding compared to control peptide)": 99.06}, {"sequence": "QYLCSSLVA [HTLV-1 nonamer peptide]", "Score (experimentally measured binding affinity, % binding compared to control peptide)": 4.85}, {"sequence": "TWPLLPHVI [HTLV-1 nonamer peptide]", "Score (experimentally measured binding affinity, % binding compared to control peptide)": 118.19}, {"sequence": "KYLYHYLRT [HTLV-1 nonamer peptide]", "Score (experimentally measured binding affinity, % binding compared to control peptide)": 2.63}, {"sequence": "NYSLLASLL [HTLV-1 nonamer peptide]", "Score (experimentally measured binding affinity, % binding compared to control peptide)": 105.08}, {"sequence": "DLMGEVNYW [HTLV-1 nonamer peptide]", "Score (experimentally measured binding affinity, % binding compared to control peptide)": 62.28}, {"sequence": "PYHAFVERL [HTLV-1 nonamer peptide]", "Score (experimentally measured binding affinity, % binding compared to control peptide)": 113.04}, {"sequence": "VLQSSSFIF [HTLV-1 nonamer peptide]", "Score (experimentally measured binding affinity, % binding compared to control peptide)": 82.42}, {"sequence": "WQGRLEAMW [HTLV-1 nonamer peptide]", "Score (experimentally measured binding affinity, % binding compared to control peptide)": 2.54}, {"sequence": "PYNPTSSGL [HTLV-1 nonamer peptide]", "Score (experimentally measured binding affinity, % binding compared to control peptide)": 104.86}]}, {"biological_target": "T2, HLA class I molecule A*0201 (Homo sapiens, UniProt P04439, D140Y/D185E/D98H/E176V/E277Q/G131W/G231S/I119V/I121R/I166T/I218V/L300P/L318F/N151K/N90K/P208A/P217A/Q86G/Q94H/R138H/R169H/T345S)", "T2 construct": "purchased ProImmune Ltd., Oxford, UK", "assay": "not given", "format": "binding", "settings": "REVEAL assay, assembly of peptide-HLA complex by ELISA with conformation-dependent anti-HLA antibody, relative to positive control peptide for that allele, comparable within an allele only", "units": {"Score (experimentally measured binding affinity, % binding compared to control peptide)": "%"}, "values": [{"sequence": "YISQDFLNM [HTLV-1 nonamer peptide]", "Score (experimentally measured binding affinity, % binding compared to control peptide)": 10.48}, {"sequence": "LVEELVDGL [HTLV-1 nonamer peptide]", "Score (experimentally measured binding affinity, % binding compared to control peptide)": 2.64}, {"sequence": "YILWDKQIL [HTLV-1 nonamer peptide]", "Score (experimentally measured binding affinity, % binding compared to control peptide)": 39}, {"sequence": "LLQEKEDLM [HTLV-1 nonamer peptide]", "Score (experimentally measured binding affinity, % binding compared to control peptide)": 46.36}, {"sequence": "ELVDGLLSL [HTLV-1 nonamer peptide]", "Score (experimentally measured binding affinity, % binding compared to control peptide)": 25.11}, {"sequence": "LTPPITHTT [HTLV-1 nonamer peptide]", "Score (experimentally measured binding affinity, % binding compared to control peptide)": 31.05}]}, {"biological_target": "HLA class I molecule B*3501 (Homo sapiens, UniProt P01889, A329T/A93T/A95T/C349S/D201E/D98Y/E176V/E187L/E204Q/E69T/I218V/K202T/L119I/Q94N/R155S/R180L/S121R/S35A/S48A/T118I/V127L/V306I/V36M/Y140S/Y91F)", "assay": "REVEAL HLA-peptide binding assay, B*3501", "settings": "assembly of peptide-HLA complex by ELISA with conformation-dependent anti-HLA antibody, relative to positive control peptide for that allele, comparable within an allele only", "description": "The REVEAL HLA-peptide binding assay (ProImmune Ltd., Oxford, UK) was used to quantify peptide-HLA binding. For each allele-peptide combination that was tested, assembly of peptide-HLA complexes was quantified by ELISA with a conformation-dependent anti-HLA antibody. Samples of assembling peptide-HLA complexes were taken at a defined time point and snap-frozen in liquid nitrogen prior to analysis. The assembly for each peptide-HLA complex was then compared against a positive control peptide for that allele as the percentage of assembled peptide relative to that control. We selected four HLA class I alleles and 50 HTLV-1 peptides for each allele. The allele choice was based on allele frequency in the Kagoshima database and included 2 A alleles and 2 B alleles as well as alleles for which we knew that the epitope prediction tended to be poor. The 50 HTLV-1 nonamer peptides for each allele were selected to represent a range of predicted binding affinities, from weak to strong binding peptides. They originated from 4 HTLV-1 reference strain proteins: Tax, HBZ, Gag and Polymerase.\nNote the binding score is with respect to a reference good binding peptide for each allele and therefore scores can be compared within an allele but not between alleles.", "units": {"Score (experimentally measured binding affinity, % binding compared to control peptide)": "%"}, "values": [{"sequence": "YISQDFLNM [HTLV-1 nonamer peptide]", "Score (experimentally measured binding affinity, % binding compared to control peptide)": 0}, {"sequence": "LVEELVDGL [HTLV-1 nonamer peptide]", "Score (experimentally measured binding affinity, % binding compared to control peptide)": 0}, {"sequence": "YILWDKQIL [HTLV-1 nonamer peptide]", "Score (experimentally measured binding affinity, % binding compared to control peptide)": 0}, {"sequence": "LLQEKEDLM [HTLV-1 nonamer peptide]", "Score (experimentally measured binding affinity, % binding compared to control peptide)": 0}, {"sequence": "ELVDGLLSL [HTLV-1 nonamer peptide]", "Score (experimentally measured binding affinity, % binding compared to control peptide)": 0}, {"sequence": "CPINYSLLA [HTLV-1 nonamer peptide]", "Score (experimentally measured binding affinity, % binding compared to control peptide)": 102.68}, {"sequence": "LTPPITHTT [HTLV-1 nonamer peptide]", "Score (experimentally measured binding affinity, % binding compared to control peptide)": 0}, {"sequence": "LPTTLFQPA [HTLV-1 nonamer peptide from Tax]", "Score (experimentally measured binding affinity, % binding compared to control peptide)": 119.5}, {"sequence": "CPLCQDPTH [HTLV-1 nonamer peptide]", "Score (experimentally measured binding affinity, % binding compared to control peptide)": 36.7}, {"sequence": "MQELGIDGY [HTLV-1 nonamer peptide]", "Score (experimentally measured binding affinity, % binding compared to control peptide)": 48.1}, {"sequence": "EPEPEEDAL [HTLV-1 nonamer peptide]", "Score (experimentally measured binding affinity, % binding compared to control peptide)": 28.71}, {"sequence": "LPEDCLPTT [HTLV-1 nonamer peptide]", "Score (experimentally measured binding affinity, % binding compared to control peptide)": 52.2}, {"sequence": "WTINHLNVL [HTLV-1 nonamer peptide]", "Score (experimentally measured binding affinity, % binding compared to control peptide)": 1.04}]}]}
